The subject of one experiment is P-PRAS40. As to the kind of experiment: Western blotting of P-PRAS40 in SW620 cells. The following applies: 1 μM.
Experiment [1] concerns AKT. Description: Western blotting of total AKT. The following applies: PC3 cells, 1 μM, 24 h. Format: cell-based.
For experiment [2], the system named is P-AKT (S473), P-PRAS40 (T246), P-S6 (S240/244). Description: Western blotting of downstream signaling in PC3 cells. The following applies: 1 μM, 24 h. Format: cell-based. A general note: In western blotting, separated proteins are transferred to a membrane and probed.
For experiment [3], the system named is AKT. Description: Western blotting of T-AKT in SW620 cells. The format is cell-based. Conditions: SW620 cells.
The subject of experiment [4] is AKT. As to the kind of experiment: Western blotting of T-AKT in PANC-1 cells. The format is cell-based. Conditions: PANC-1 cells (KRAS mutant), 1 μM, 24 h.
The next experiment relates to SW620 cells. Description: Colony formation assay in SW620 cells. Conditions: 2 weeks, crystal violet. Format: cell-based.

Structures are written as SMILES. Entries after “also recorded” stand apart in the source; their conditions may differ.

For `Nc1ncccc1-c1nc2ccc(-c3ccccc3)nc2n1-c1ccc(C2(N)CCC2)cc1` [ARQ-092, 3-(3-(4-(1-Aminocyclobutyl)phenyl)-5-phenyl-3H-imidazo[4,5-b]pyridin-2-yl)pyridin −2-amine, reference compound], in the experiment with P-PRAS40 (up to 24 h), the “phosphorylation of PRAS40 in time-course study (in words)” value is “potently inhibited”.

In the case of `Cc1ncsc1-c1ccc(CNC(=O)[C@@H]2C[C@@H](O)CN2C(=O)[C@@H](NC(=O)CNC(=O)CCc2cccc(-c3ccc4nc(-c5cccnc5N)n(-c5ccc(C6(N)CCC6)cc5)c4n3)c2)C(C)(C)C)cc1` [Compound 11, (2S,4R)-1-((S)-2-(2-(3-(3-(3-(4-(1-Aminocyclobutyl)phenyl)-2-(2-aminopyridin-3-yl)-3H-imidazo[4,5-b]pyridin-5-yl)phenyl)propanamido)acetamido)-3,3-dimethylbutanoyl)-4-hydroxy-N-(4-(4-methylthiazol-5-yl)benzyl)pyrrolidine-2-carboxamide], the “T-AKT protein level / AKT degradation (western blot, in words)” value (“T-AKT protein level / AKT degradation” below) in the experiment with AKT [1] was “completely inactive”.

In the case of `Cc1ncsc1-c1ccc(CNC(=O)[C@@H]2C[C@@H](O)CN2C(=O)[C@@H](NC(=O)CCNC(=O)CCc2cccc(-c3ccc4nc(-c5cccnc5N)n(-c5ccc(C6(N)CCC6)cc5)c4n3)c2)C(C)(C)C)cc1` [Compound 12, (2S,4R)-1-((S)-2-(3-(3-(3-(3-(4-(1-Aminocyclobutyl)phenyl)-2-(2-aminopyridin-3-yl)-3H-imidazo[4,5-b]pyridin-5-yl)phenyl)propanamido)propanamido)-3,3-dimethylbutanoyl)-4-hydroxy-N-(4-(4-methylthiazol-5-yl)benzyl)pyrrolidine-2-carboxamide], the “T-AKT protein level / AKT degradation” value with AKT [1] was “completely inactive”.

As for `Cc1ncsc1-c1ccc(CNC(=O)[C@@H]2C[C@@H](O)CN2C(=O)[C@@H](NC(=O)CCCCCCCCCCNC(=O)CCc2cccc(-c3ccc4nc(-c5cccnc5N)n(-c5ccc(C6(N)CCC6)cc5)c4n3)c2)C(C)(C)C)cc1` [Compound 20, (2S,4R)-1-((S)-2-(11-(3-(3-(3-(4-(1-Aminocyclobutyl)phenyl)-2-(2-aminopyridin-3-yl)-3H-imidazo[4,5-b]pyridin-5-yl)phenyl)propanamido)undecanamido)-3,3-dimethylbutanoyl)-4-hydroxy-N-(4-(4-methylthiazol-5-yl)benzyl)pyrrolidine-2-carboxamide], the “T-AKT protein level / AKT degradation” value in the experiment on AKT [1] is reported as “highly effective AKT degraders”.

As for `Cc1ncsc1-c1ccc(CNC(=O)[C@@H]2C[C@@H](O)CN2C(=O)[C@@H](NC(=O)COCC(=O)NCCc2cccc(-c3ccc4nc(-c5cccnc5N)n(-c5ccc(C6(N)CCC6)cc5)c4n3)c2)C(C)(C)C)cc1` [Compound 33, (2S,4R)-1-((S)-2-(2-(2-((3-(3-(4-(1-Aminocyclobutyl)phenyl)-2-(2-aminopyridin-3-yl)-3H-imidazo[4,5-b]pyridin-5-yl)phenethyl)amino)-2-oxoethoxy)acetamido)-3,3-dimethylbutanoyl)-4-hydroxy-N-(4-(4-methylthiazol-5-yl)benzyl)pyrrolidine-2-carboxamide], the “T-AKT protein level / AKT degradation” value with AKT [1] is given as “effectively induced T-AKT degradation”.

As for `Cc1ncsc1-c1ccc(CNC(=O)[C@@H]2C[C@@H](O)CN2C(=O)[C@@H](NC(=O)CCOCCC(=O)NCCc2cccc(-c3ccc4nc(-c5cccnc5N)n(-c5ccc(C6(N)CCC6)cc5)c4n3)c2)C(C)(C)C)cc1` [Compound 34, (2S,4R)-1-((S)-2-(3-(3-((3-(3-(4-(1-Aminocyclobutyl)phenyl)-2-(2-aminopyridin-3-yl)-3H-imidazo[4,5-b]pyridin-5-yl)phenethyl)amino)-3-oxopropoxy)propanamido)-3,3-dimethylbutanoyl)-4-hydroxy-N-(4-(4-methylthiazol-5-yl)benzyl)pyrrolidine-2-carboxamide], the “T-AKT protein level / AKT degradation” value in the experiment on AKT [1] is listed as “effectively induced T-AKT degradation”.

For the compound `Cc1ncsc1-c1ccc(CNC(=O)[C@@H]2C[C@@H](O)CN2C(=O)[C@@H](NC(=O)COCCOCCOCCOCCOCC(=O)NCCc2cccc(-c3ccc4nc(-c5cccnc5N)n(-c5ccc(C6(N)CCC6)cc5)c4n3)c2)C(C)(C)C)cc1` [Compound 40, N^1-(3-(3-(4-(1-Aminocyclobutyl)phenyl)-2-(2-aminopyridin-3-yl)-3H-imidazo[4,5-b]pyridin-5-yl)phenethyl)-N^17-((S)-1-((2S,4R)-4-hydroxy-2-((4-(4-methylthiazol-5-yl)benzyl)carbamoyl)pyrrolidin-1-yl)-3,3-dimethyl-1-oxobutan-2-yl)-3,6,9,12,15-pentaoxaheptadecanediamide], the “T-AKT protein level / AKT degradation” value in the experiment with AKT [1] is on record as “restored effective AKT degradation activity”.

For the compound `Cc1ncsc1-c1ccc(CNC(=O)[C@@H]2C[C@@H](O)CN2C(=O)[C@@H](NC(=O)CCOCCOCCOCCOCCOCCC(=O)NCCc2cccc(-c3ccc4nc(-c5cccnc5N)n(-c5ccc(C6(N)CCC6)cc5)c4n3)c2)C(C)(C)C)cc1` [Compound 41, N^1-(3-(3-(4-(1-Aminocyclobutyl)phenyl)-2-(2-aminopyridin-3-yl)-3H-imidazo[4,5-b]pyridin-5-yl)phenethyl)-N^19-((S)-1-((2S,4R)-4-hydroxy-2-((4-(4-methylthiazol-5-yl)benzyl)carbamoyl)pyrrolidin-1-yl)-3,3-dimethyl-1-oxobutan-2-yl)-4,7,10,13,16-pentaoxanonadecanediamide], in the experiment on AKT [1], the “T-AKT protein level / AKT degradation” value is “restored effective AKT degradation activity”.

On to `Cc1ncsc1-c1ccc(CNC(=O)[C@@H]2C[C@@H](O)CN2C(=O)[C@@H](NC(=O)CCCCCCCC(=O)NCCc2cccc(-c3ccc4nc(-c5cccnc5N)n(-c5ccc(C6(N)CCC6)cc5)c4n3)c2)C(C)(C)C)cc1` [Compound 47, N^1-(3-(3-(4-(1-Aminocyclobutyl)phenyl)-2-(2-aminopyridin-3-yl)-3H-imidazo[4,5-b]pyridin-5-yl)phenethyl)-N^9-((S)-1-((2S,4R)-4-hydroxy-2-((4-(4-methylthiazol-5-yl)benzyl)carbamoyl)pyrrolidin-1-yl)-3,3-dimethyl-1-oxobutan-2-yl)nonanediamide], for which the “T-AKT protein level / AKT degradation” value in the experiment on AKT [1] was “particularly effective in T-AKT degradation”. Also, the “downstream signaling inhibition (P-AKT, P-PRAS40, P-S6; western blot, in words)” value in experiment [2] is on record as “particularly effective”.

Turning to `Cc1ncsc1-c1ccc(CNC(=O)[C@@H]2C[C@@H](O)CN2C(=O)[C@@H](NC(=O)CCCCCCCCC(=O)NCCc2cccc(-c3ccc4nc(-c5cccnc5N)n(-c5ccc(C6(N)CCC6)cc5)c4n3)c2)C(C)(C)C)cc1` [Compound 48, N^1-(3-(3-(4-(1-Aminocyclobutyl)phenyl)-2-(2-aminopyridin-3-yl)-3H-imidazo[4,5-b]pyridin-5-yl)phenethyl)-N^10-((S)-1-((2S,4R)-4-hydroxy-2-((4-(4-methylthiazol-5-yl)benzyl)carbamoyl)pyrrolidin-1-yl)-3,3-dimethyl-1-oxobutan-2-yl)decanediamide], the “T-AKT protein level / AKT degradation” value in the experiment on AKT [1] was “particularly effective in T-AKT degradation; also recorded: highly effective AKT degraders”. Also, in experiment [2], the “downstream signaling inhibition (P-AKT, P-PRAS40, P-S6; western blot, in words)” value was “particularly effective”.

In the case of `Cc1ncsc1-c1ccc(CNC(=O)[C@@H]2C[C@@H](O)CN2C(=O)[C@@H](NC(=O)CCCCCCCCCC(=O)NCCc2cccc(-c3ccc4nc(-c5cccnc5N)n(-c5ccc(C6(N)CCC6)cc5)c4n3)c2)C(C)(C)C)cc1` [Compound 49, N^1-(3-(3-(4-(1-Aminocyclobutyl)phenyl)-2-(2-aminopyridin-3-yl)-3H-imidazo[4,5-b]pyridin-5-yl)phenethyl)-N^11-((S)-1-((2S,4R)-4-hydroxy-2-((4-(4-methylthiazol-5-yl)benzyl)carbamoyl)pyrrolidin-1-yl)-3,3-dimethyl-1-oxobutan-2-yl)undecanediamide], the “T-AKT protein level / AKT degradation” value in the experiment with AKT [1] is recorded as “particularly effective in T-AKT degradation; also recorded: highly effective AKT degraders”. In addition, in experiment [2], the “downstream signaling inhibition (P-AKT, P-PRAS40, P-S6; western blot, in words)” value is “particularly effective”.

Take `Cc1ncsc1-c1ccc([C@H](C)NC(=O)[C@H]2C[C@H](O)CN2C(=O)[C@@H](NC(=O)CCCCCCCCCCNC(=O)CCc2cccc(-c3ccc4nc(-c5cccnc5N)n(-c5ccc(C6(N)CCC6)cc5)c4n3)c2)C(C)(C)C)cc1` [Compound 63, (2R,4S)-1-((S)-2-(11-(3-(3-(3-(4-(1-Aminocyclobutyl)phenyl)-2-(2-aminopyridin-3-yl)-3H-imidazo[4,5-b]pyridin-5-yl)phenyl)propanamido)undecanamido)-3,3-dimethylbutanoyl)-4-hydroxy-N-((S)-1-(4-(4-methylthiazol-5-yl)phenyl)ethyl)pyrrolidine-2-carboxamide]: in the experiment on AKT [3] (1 μM, 18 h, Figure S4), the “T-AKT level (western blot verification for proteomics, in words)” value is “no effect”. In addition, in the experiment with AKT [3] (concentrations up to 10 μM, 24 h), the “effect on AKT protein levels at high concentrations (in words)” value is listed as “no effect”. Also, the “P-PRAS40 inhibition (western blot verification for proteomics, in words)” value in the experiment on P-PRAS40 (18 h, Figure S4) is given as “no effect”.

On to `Cc1ncsc1-c1ccc(CNC(=O)[C@@H]2C[C@@H](O)CN2C(=O)[C@@H](NC(=O)CCCCCCCCCC(=O)N2CCN(CC[C@H](NC(=O)C3(N)CCN(c4ncnc5[nH]ccc45)CC3)c3ccc(Cl)cc3)CC2)C(C)(C)C)cc1` [MS21, reference compound], for which the “T-AKT degradation (in words)” value is “largely ineffective” in the experiment with AKT [3] (indicated concentrations, 24 h, Figure 7E) and “unable to reduce the AKT protein level” in the experiment on AKT [4]. Also, in the experiment with SW620 cells, the “inhibition of colony formation (in words)” value is on record as “no effect”.

The record behind these values is publication PMC9613624 (Journal of medicinal chemistry, 2022).
